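Each compound was tested at five concentrations against cells in 96-well plates for 48 hours. TGI: total growth inhibition.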
Experiments:
Assay in all cases: NCI tumour cell line growth inhibition, 48 h
[1] = test system: 786-0 renal
[2] = test system: A498 renal
[3] = test system: A549 NSCLC
[4] = test system: ACHN renal
[5] = test system: BT-549 breast
[6] = test system: CAKI-1 renal
[7] = test system: CCRF-CEM leukemia
[8] = test system: COLO 205 colon
[9] = test system: DLD-1 colon
[10] = test system: DMS 114 small cell lung
[11] = test system: DMS 273 small cell lung
[12] = test system: DU-145 prostate
[13] = test system: EKVX NSCLC
[14] = test system: HCC-2998 colon
[15] = test system: HCT-116 colon
[16] = test system: HCT-15 colon
[17] = test system: HL-60(TB) leukemia
[18] = test system: HOP-18 NSCLC
[19] = test system: HOP-62 NSCLC
[20] = test system: HOP-92 NSCLC
[21] = test system: HT29 colon
[22] = test system: IGROV1 ovarian
[23] = test system: K-562 leukemia
[24] = test system: KM12 colon
[25] = test system: KM20L2 colon
[26] = test system: LOX IMVI melanoma
[27] = test system: LXFL 529 NSCLC
[28] = test system: M14 melanoma
[29] = test system: M19-MEL melanoma
[30] = test system: MALME-3M melanoma
[31] = test system: MCF7 breast
[32] = test system: MDA-MB-231 breast
[33] = test system: MDA-MB-435
[34] = test system: MDA-N
[35] = test system: MOLT-4 leukemia
[36] = test system: NCI-H226 lung
[37] = test system: NCI-H23 lung
[38] = test system: NCI-H460 lung
[39] = test system: NCI-H522 lung
[40] = test system: NCI/ADR-RES ovarian
[41] = test system: OVCAR-3 ovarian
[42] = test system: OVCAR-4 ovarian
[43] = test system: OVCAR-5 ovarian
[44] = test system: OVCAR-8 ovarian
[45] = test system: P388 leukemia
[46] = test system: P388/ADR leukemia
[47] = test system: PC-3 prostate
[48] = test system: RPMI-8226 leukemia
[49] = test system: RXF 393 renal
[50] = test system: SF-268 CNS
[51] = test system: SF-295 CNS
[52] = test system: SF-539 CNS
[53] = test system: SK-MEL-2 melanoma
[54] = test system: SK-MEL-28 melanoma
[55] = test system: SK-MEL-5 melanoma
[56] = test system: SK-OV-3 ovarian
[57] = test system: SN12C renal
[58] = test system: SNB-19 CNS
[59] = test system: SNB-75 CNS
[60] = test system: SNB-78 CNS
[61] = test system: SR leukemia
[62] = test system: SW-620 colon
[63] = test system: TK-10 renal
[64] = test system: U251 CNS
[65] = test system: UACC-257 melanoma
[66] = test system: UACC-62 melanoma
[67] = test system: UO-31 renal
[68] = test system: XF 498 CNS

In the case of `COc1ccc2nc3ccccc3c(NCCN(C)CCCl)c2c1`, the TGI [1] is reported as 1890 nM, the TGI [2] is reported as 3020 nM and the TGI [3] is reported as 4880 nM. It also gave a TGI [4] of 1910 nM, a TGI [5] of 3240 nM and a TGI [6] of 2200 nM. The TGI [7] was 3670 nM, the TGI [8] was 1840 nM and the TGI [9] was 3450 nM. The TGI [10] was 2310 nM, the TGI [11] was 2350 nM and the TGI [12] was 4470 nM. It also gave a TGI [13] of 4370 nM, a TGI [14] of 2150 nM and a TGI [15] of 2630 nM. For the same molecule, the TGI [16] was 7560 nM, the TGI [17] was 1730 nM and the TGI [18] was 6290 nM. It also gave a TGI [19] of 3700 nM, a TGI [20] of 3850 nM and a TGI [21] of 4950 nM. It also gave a TGI [22] of 2580 nM, a TGI [23] of 9240 nM and a TGI [24] of 4130 nM. The TGI [25] was 2880 nM, the TGI [26] was 1770 nM and the TGI [27] was 1850 nM. For the same molecule, the TGI [28] was 2290 nM, the TGI [29] was 2480 nM and the TGI [30] was 1500 nM. It also gave a TGI [31] of 4180 nM, a TGI [32] of 2980 nM and a TGI [33] of 2150 nM. For the same molecule, the TGI [34] was 2400 nM, the TGI [35] was 497 nM and the TGI [36] was 2260 nM. The TGI [37] was 1880 nM, the TGI [38] was 2490 nM and the TGI [39] was 1510 nM. It also gave a TGI [40] of 3790 nM, a TGI [41] of 3290 nM and a TGI [42] of 2800 nM. The TGI [43] was 3840 nM, the TGI [44] was 2760 nM and the TGI [45] was 1510 nM. For the same molecule, the TGI [46] was 8730 nM, the TGI [47] was 2240 nM and the TGI [48] was 1530 nM. For the same molecule, the TGI [49] was 1860 nM, the TGI [50] was 3850 nM and the TGI [51] was 4170 nM. For the same molecule, the TGI [52] was 1850 nM, the TGI [53] was 2410 nM and the TGI [54] was 3970 nM. The TGI [55] was 2030 nM, the TGI [56] was 3500 nM and the TGI [57] was 2860 nM. The TGI [58] was 7440 nM, the TGI [59] was 4070 nM and the TGI [60] was 4760 nM. For the same molecule, the TGI [61] was 2310 nM, the TGI [62] was 1910 nM and the TGI [63] was 15700 nM. It also gave a TGI [64] of 3160 nM, a TGI [65] of 9460 nM and a TGI [66] of 2030 nM. The TGI [67] was 3380 nM and the TGI [68] was 2300 nM.
